In ChEMBL document CHEMBL1131395, “Novel antineoplastic agents with efficacy against multidrug resistant tumor cells” (1998):

Key:
Type in all cases: functional
[1] = test system: CAKI-1; assay: Compound was tested in vitro for growth inhibition of CAKI-1 cells derived from human renal tumor
[2] = test system: COLO 205; assay: Compound was tested in vitro for growth inhibition of COLO 205 cells derived from human colon tumor
[3] = test system: CCRF-CEM; assay: Compound was tested in vitro for growth inhibition of CCRF-CEM cells derived from human leukemia.
[4] = test system: MCF7; assay: Compound was tested in vitro for growth inhibition of MCF-7 cells derived from human breast tumor.
[5] = test system: MDA-N; assay: Compound was tested in vitro for growth inhibition of MDA-N cells derived from human breast tumor
[6] = test system: NCI/ADR-RES; assay: Compound was tested in vitro for growth inhibition of MCF-7/ADR cells that exhibit MDR phenotype.; conditions: Homo sapiens
[7] = test system: OVCAR-8; assay: Compound was tested in vitro for growth inhibition of OVCAR-8 cells derived from human ovarian tumor
[8] = test system: NCI-H522; assay: Compound was tested in vitro for growth inhibition of […] cells derived from human lung tumor
[9] = test system: P388; assay: Compound was tested in vitro for growth inhibition of murine leukemic P388 cells; conditions: Mus musculus
[10] = test system: P388/ADR; assay: Compound was tested in vitro for growth inhibition of murine leukemic P388/ADR cells that exhibit MDR phenotype.; conditions: Mus musculus
[11] = test system: SF-295; assay: Compound was tested in vitro for growth inhibition of SF 295 cells derived from CNS tumor; conditions: Homo sapiens
[12] = test system: SK-MEL-5; assay: Compound was tested in vitro for growth inhibition of SK-MEL-5 cells derived from human melanoma.
[13] = test system: PC-3; assay: Compound was tested in vitro for growth inhibition of PC 3 cells derived from human prostate tumor

| SMILES | GI50 [1] [nM] | GI50 [2] [nM] | GI50 [3] [nM] | GI50 [4] [nM] | GI50 [5] [nM] | GI50 [6] [nM] | GI50 [7] [nM] | GI50 [8] [nM] | GI50 [9] [nM] | GI50 [10] [nM] | GI50 [11] [nM] | GI50 [12] [nM] | GI50 [13] [nM] |
| --- | --- | --- | --- | --- | --- | --- | --- | --- | --- | --- | --- | --- | --- |
| Cc1ccc(NS(=O)(=O)c2c(F)c(F)c(F)c(F)c2F)cc1C | 479 | 220 | 68 | 120 | 123 | 320 | 437 | 49 | 37 | 110 | 479 | 151 | 468 |
| COc1ccc(NS(=O)(=O)c2ccc(F)c(F)c2F)cc1 | 5500 | 1300 | 600 | – | 1400 | – | 5000 | 371 | – | – | 2700 | 1000 | 3200 |
| COc1ccc(NS(=O)(=O)c2c(F)c(F)c(F)c(F)c2F)cc1 | 56 | < 10 | < 10 | 29 | 41 | 58 | 50 | < 10 | 12 | 34 | 11 | < 10 | < 10 |
| CN(C)c1ccc(NS(=O)(=O)c2c(F)c(F)c(F)c(F)c2F)cc1 | 417 | 220 | 320 | 34 | 30 | 96 | 372 | 58 | 27 | 36 | 501 | 183 | 525 |
| O=S(=O)(Nc1ccc2[nH]ccc2c1)c1c(F)c(F)c(F)c(F)c1F | 72 | 14 | < 10 | 28 | 21 | 115 | 50 | < 10 | 12 | 32 | 40 | 13 | 35 |
| O=S(=O)(Nc1ccc2c(c1)OCCO2)c1c(F)c(F)c(F)c(F)c1F | 63 | 19 | 51 | 430 | 40 | 410 | 91 | 26 | 140 | 340 | 54 | 20 | 62 |
| CC(=O)O[C@H]1C(=O)[C@@]2(C)[C@H]([C@H](OC(=O)c3ccccc3)[C@]3(O)C[C@H](OC(=O)[C@H](O)[C@@H](NC(=O)c4ccccc4)c4ccccc4)C(C)=C1C3(C)C)[C@]1(OC(C)=O)CO[C@@H]1C[C@@H]2O [PACLITAXEL] | – | – | – | 1.1 | – | > 15000 | – | – | 16 | > 15000 | – | – | – |
| CC[C@]1(O)C[C@@H]2CN(CCc3c([nH]c4ccccc34)[C@@](C(=O)OC)(c3cc4c(cc3OC)N(C)[C@H]3[C@@](O)(C(=O)OC)[C@H](OC(C)=O)[C@]5(CC)C=CCN6CC[C@]43[C@@H]65)C2)C1 [VINBLASTINE] | – | – | – | 2.3 | – | 350 | – | – | 4.1 | 470 | – | – | – |
